Data published in PMC9890130 (Clinical cancer research : an official journal of the …, 2023).
Bridge positions count the residues as written; N and C are the ends. Square brackets hold non-standard residues; d marks the D form. Peptide text beside a SMILES is read from it. * marks the point of attachment. DOTA = O=C(O)CN1CCN(CC(=O)O)CCN(CC(=O)*)CCN(CC(=O)O)CC1; Trp(1-CH2COOH) = N[C@@H](Cc1cn(CC(=O)O)c2ccccc12)C(=O)O; Hyp = O=C(O)[C@@H]1C[C@@H](O)CN1; NMeNle = CCCC[C@H](NC)C(=O)O; NMeA = CN[C@@H](C)C(=O)O

Key:
BFTC909 cells = assay: [^68Ga]Ga-DK223 uptake in BFTC909 cells with and without aPD-L1 mAbs; format: cell-based, human; conditions: 60 nM mAb
BFTC909 xenografts [1] = assay: [^68Ga]Ga-DK223 PET-CT of BFTC909 xenografts after aPD-L1 treatment; format: in vivo, NSG mice
BFTC909 xenografts [2] = format: in vivo, NSG mice; conditions: 10 mg/kg
[3] = cited from earlier work
[4] = Biodistribution of [^68Ga]Ga-DK385; format: in vivo, mice; conditions: mouse, iv, 50 uCi, total radioactivity
Human PD-L1 Fc-tagged = Human PD-L1 Fc-tagged (Homo sapiens, UniProt Q9NZQ7); assay: Surface plasmon resonance; format: binding; conditions: read-out: KD (affinity for PD-L1); SPR, Biacore T200, CM5 chip, 25°C, 1:1 kinetics model; n=3
[5] = test system: MDAMB231, BFTC909, SUM149, and SCaBER cells; assay: In vitro binding assay, blocking with non-radioactive DK223; format: cell-based, human; conditions: 1 μM non-radioactive DK223; P<0.0001

Molecule: avelumab
- [^68Ga]Ga-DK223 uptake in BFTC909 cells in presence of mAb (BFTC909 cells): less than 1%
- [^68Ga]Ga-DK223 uptake in tumors (PET) after mAb treatment (BFTC909 xenografts [1]; 24 h after 10 mg/kg mAb i.v., PET 60 min after tracer): significantly lower uptake
- [^68Ga]Ga-DK223 uptake in tumors (PET) after mAb treatment (BFTC909 xenografts [1]; 72 h after 10 mg/kg mAb i.v., avelumab compared with durvalumab): increased
- reduction of [^68Ga]Ga-DK223 tumor uptake versus saline (BFTC909 xenografts [2]; 24 h treatment, P<0.0001): more than 80%
- accessible PD-L1 levels (BFTC909 xenografts [2]; 120 h of treatment, tumor %ID/g as fraction of saline group): increase in accessible PD-L1 levels
- [^68Ga]Ga-DK223 tumor uptake versus saline controls (BFTC909 xenografts [2]; 120 h treatment): no significant differences
- half-life [3]: 146 h

Molecule: CCCC[C@H]1C(=O)N(C)[C@@H](CCCC)C(=O)N[C@@H](CCCCNC(=O)CCC(C(=O)O)N2CCN(CC(=O)O)CCN(CC(=O)O)CCN(CC(=O)O)CC2)C(=O)N[C@H](C(=O)NCC(N)=O)CSCC(=O)N[C@@H](Cc2ccc(O)cc2)C(=O)N(C)[C@@H](C)C(=O)N[C@@H](CC(N)=O)C(=O)N2CCC[C@H]2C(=O)N[C@@H](Cc2c[nH]cn2)C(=O)N[C@@H](CCC(=O)O)C(=O)N2C[C@H](O)C[C@H]2C(=O)N[C@@H](Cc2c[nH]c3ccccc23)C(=O)N[C@@H](CO)C(=O)N[C@@H](Cc2cn(CC(=O)O)c3ccccc23)C(=O)N1C (stereo partly drawn) [[^68Ga]Ga-DK385, metal not drawn]
- tissue to tissue ratio at 1 h ([4]; tumor and blood): 2.32 ± 0.38
- tissue to tissue ratio at 1 h ([4]; tumor and muscle): 19.9 ± 2.15
- tissue uptake at 1 h ([4]; tumor): 8.5 ± 1.67 %ID/g

Molecule: CCCC[C@H]1C(=O)N(C)[C@@H](CCCC)C(=O)N[C@@H](CCCCNC(=O)CN2CCN(CC(=O)O)CCN(CC(=O)O)CCN(CC(=O)O)CC2)C(=O)N[C@H](C(=O)NCC(N)=O)CSCC(=O)N[C@@H](Cc2ccc(O)cc2)C(=O)N(C)[C@@H](C)C(=O)N[C@@H](CC(N)=O)C(=O)N2CCC[C@H]2C(=O)N[C@@H](Cc2c[nH]cn2)C(=O)N[C@@H](CCC(=O)O)C(=O)N2C[C@H](O)C[C@H]2C(=O)N[C@@H](Cc2c[nH]c3ccccc23)C(=O)N[C@@H](CO)C(=O)N[C@@H](Cc2cn(CC(=O)O)c3ccccc23)C(=O)N1C [DK223] ({CH2CO}-Y[NMeA]NPHE[Hyp]WS[Trp(1-CH2COOH)][NMeNle][NMeNle]K(DOTA)CG-NH2; thioether N-14)
- Kd (Human PD-L1 Fc-tagged): 1.01 ± 0.83 nM
- [^68Ga]Ga-DK223 uptake in cells incubated with non-radioactive DK223 [5]: significantly reduced
